Results on nine compounds are retold here after patent US7256006B2, “Method for determining the influence of a test substance on the heart activity of a vertebrate” (Multi Channel Systems MCS GmbH, priority 2003, dated 2007).

Structures can show the parent of a compound that is named as a salt. Where two headings read alike, the source gives them in different places.

Series [1] deals with ventricular myocytes from chicken embryos. The experiment in a line: extracellular MEA field potential (FPdur) measurement on spontaneously beating heart cells. Format: cell-based. The conditions noted are these: submicromolecular concentrations.
Series [2] has the same test system. Described as above. Format: cell-based. The protocol:
The heart muscle cells were obtained by trypsin digestion of the isolated ventricle of chicken embryos (10-12 days after fertilization). The heart was freed of blood vessels and atria. The cells were cultured in MEM medium supplemented with 10% fetal calf serum (FCS). One to two days before the measurement, the medium was replaced by standard Tyrode solution.
The standard Tyrode solution was then replaced by a Tyrode solution with 5 μM of a test substance and the change in FPdur was determined. Thereafter, the concentration of the test substance was increased in logarithmic steps. A measurement was now taken every 10 minutes.
In measurements with quinidine, 0.5% DMSO was added to the cell Tyrode since quinidine is not water-soluble. The control experiment was also carried out with DMSO here.
In these qualitative evaluations, i.e. comparison of data from the respective control experiment and the data derived from addition of the QT-modifying substance, possible changes in the heart rate were taken into account.
For the normalized case, the FPdur value was divided by the square root of the time span (in seconds) between two action potentials.

For series [3] the following is noted: literature reference; cited from earlier work.

Take `Cc1cccc(CCN2CCC(C(=O)c3ccc(NS(C)(=O)=O)cc3)CC2)n1.Cl.Cl` [E4031]: the “prolongation of the ventricular action potential” value in series [1] is given as “over 90%”. As to `COc1ccc(CCN2CCC(Nc3nc4ccccc4n3Cc3ccc(F)cc3)CC2)cc1` [astemizol], the “effect on the QT interval” value in series [2] is “prolongating effect”. Still for that read-out and setting: as for `COc1cc(N)c(Cl)cc1C(=O)NC1CCN(CCCOc2ccc(F)cc2)CC1OC` (centres unmarked) [cisapride], the entry is “prolongating effect”; as for `CC(C)(C(=O)O)c1ccc(C(O)CCCN2CCC(C(O)(c3ccccc3)c3ccccc3)CC2)cc1` (centres unmarked) [fexofenafine], “prolongating effect”; as for `COc1cc2c(cc1OC)CC(=O)N(CCCN(C)C[C@H]1Cc3cc(OC)c(OC)cc31)CC2` [ivabradine], “No QT prolongation”. Take `C=C[C@H]1C[N@@]2CC[C@H]1C[C@@H]2[C@@H](O)c1ccnc2ccc(OC)cc12` [quinidine]: the “QT prolongation (increase in FPdur)” value in series [2] (FIG. 2B, indicated quinidine concentrations for 200 seconds) is “QT prolongation increasing with concentration”. Also, in series [2] (chicken, 10 min), the “concentrations at which QT prolongations are shown in vitro in the MEA system” value fell in the range of 2000 to 7000 nM. Also, in series [2] (summary of substances tested by the inventors), the “effect on the QT interval” value is given as “prolongating effect”. Further, the “effect on QT” value in series [3] is on record as “QT-prolonging effect”. Turning to `CC1(C)Oc2ccc(S(=O)(=O)c3ccccc3)cc2[C@@H](N2CCCC2=O)[C@@H]1O` [rilmakalim], the “prolongation of the field potential” value in series [2] is recorded as “did not prolong the field potential”. The beating frequency result in series [2] (substance with so far unknown effect on QT interval) is “reduced the frequency”. Take `CC(C)NCC(O)c1ccc(NS(C)(=O)=O)cc1` (centres unmarked) [sotalol, N-[4-[1-hydroxy-2-(isopropylamino)ethyl]phenyl]methanesulfonamidehydrochloride]: in series [2], the “effect on the QT interval” value is “prolongating effect” and the “prolongation of the action potential” value is reported as “about double”. Turning to `CC(C)(C)c1ccc(C(O)CCCN2CCC(C(O)(c3ccccc3)c3ccccc3)CC2)cc1` (centres unmarked) [terfenadin], the “effect on the QT interval” value in series [2] is reported as “prolongating effect”.
